Source: article PMC9250534, “Synthesis and direct assay of large macrocycle diversities by combinatorial late-stage modification at picomole scale” (Nature Communications, 2022)
“And” between values parts separate entries of the source, which are not always exact repeats. Equal entries are not always repeated. Where two headings read alike, the source gives them in different places.

Columns and labels:
thrombin [1] = target: T1, thrombin (Homo sapiens, UniProt P00734); assay: Determination of Kis of purified thrombin inhibitors (IC50, Cheng-Prusoff); format: biochemical; details: for % thrombin activity: replicates 1-3
T1 construct: consists of two polypeptide chains of 36 (light chain) and 259 amino acid
Protocol: Purified thrombin inhibitors (10 mM in DMSO) were diluted to 80 μM in 125 μL of Tris buffer (100 mM Tris-Cl, 150 mM NaCl, 10 mM MgCl2, 1 mM CaCl2) containing 0.1% w/v BSA, 0.01% v/v Triton-X100 and […]. The macrocycles were diluted two-fold in Tris buffer containing 0.1% w/v BSA, 0.01% v/v Triton-X100 and 1% DMSO in buffer. The thrombin activity was measured in 96-well plates (Greiner, 655101) and the residual activity calculated as described above in the assay used to measure activities of HPLC-separated fractions of screening hits.
Supplementary Figure 7. Thrombin inhibitors M1 to M5. a, Chemical structures and analytical HPLC chromatograms obtained using a 0-100% MeCN/H2O gradient over 15 minutes. b, For all macrocycles, an 18 -point, two-fold serial dilution was performed in 50 µL volumes. Thrombin was added (50 µL, 2 nM final conc.), followed 10 minutes later by fluorogenic substrate Z -Gly-Gly-Arg-AMC (50 µL, 50 µM final conc.). The increase in fluorescence was measured over 30 minutes.
Residual thrombin activity was determined by dividing the slope of fluorescenc e intensity over time for each well by the slope of control wells without macrocycle. Mean values and SDs are indicated for three independent thrombin inhibition measurements.
(1 picture or pasted object on this page, not shown here)

thrombin [2] = target: T1, thrombin; assay: Thrombin inhibition screen of crude macrocycle reactions (residual thrombin activity, fluorogenic substrate Z-Gly-Gly-Arg-AMC); format: biochemical; details: 10 µM macrocycle concentration, macrocycles containing acid 14, crude reaction
Summary of the method: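 Residual activity was measured as the AMC release rate after adding 50 μM Z-Gly-Gly-Arg-AMC. This followed a 10-min room-temperature preincubation of 2 nM thrombin with 10 μM single macrocycles in pH 7.4 Tris buffer (0.6% DMSO). Percent inhibition was taken against the mean slope of DMSO controls.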

[3] = thrombin, average of 3 replicates, read-out: IC50 (nM) Average
[4] = thrombin, replicate 1, Cheng-Prusoff, read-out: Ki (nM) Replicate 1
[5] = thrombin, replicate 1, read-out: IC50 (nM) Replicate 1
[6] = thrombin, replicate 2, Cheng-Prusoff, read-out: Ki (nM) Replicate 2
[7] = thrombin, replicate 2, read-out: IC50 (nM) Replicate 2
[8] = thrombin, replicate 3, Cheng-Prusoff, read-out: Ki (nM) Replicate 3
[9] = thrombin, replicate 3, read-out: IC50 (nM) Replicate 3

| % thrombin activity (thrombin [1]; Log [Macrocycle] M -8.8) | % thrombin activity (thrombin [1]; Log [Macrocycle] M -9.1) | % thrombin activity (thrombin [1]; Log [Macrocycle] M -9.4) | % thrombin activity (thrombin [1]; Log [Macrocycle] M -9.7) | % thrombin activity (thrombin [1]; Log[Macrocycle] M -4.6) | % thrombin activity (thrombin [1]; Log[Macrocycle] M -4.9) | % thrombin activity (thrombin [1]; Log[Macrocycle] M -5.2) | % thrombin activity (thrombin [1]; Log[Macrocycle] M -5.5) | % thrombin activity (thrombin [1]; Log[Macrocycle] M -5.8) | % thrombin activity (thrombin [1]; Log[Macrocycle] M -6.1) | % thrombin activity (thrombin [1]; Log[Macrocycle] M -6.4) | % thrombin activity (thrombin [1]; Log[Macrocycle] M -6.7) | % thrombin activity (thrombin [1]; Log[Macrocycle] M -7.0) | % thrombin activity (thrombin [1]; Log[Macrocycle] M -7.3) | % thrombin activity (thrombin [1]; Log[Macrocycle] M -7.6) | % thrombin activity (thrombin [1]; Log[Macrocycle] M -7.9) | % thrombin activity (thrombin [1]; Log[Macrocycle] M -8.2) | % thrombin activity (thrombin [1]; Log[Macrocycle] M -8.5) | IC50 (thrombin [1]; [3]) [nM] | Ki (thrombin [1]; [4]) [nM] | SMILES | other results |
| --- | --- | --- | --- | --- | --- | --- | --- | --- | --- | --- | --- | --- | --- | --- | --- | --- | --- | --- | --- | --- | --- |
| – | – | – | – | – | – | – | – | – | – | – | – | – | – | – | – | – | – | – | – | NC(=O)c1ccc(Cl)s1 [5-chlorothiophene-2-carboxamide, reference compound] | Ki (thrombin [1]; read-out: Ki thrombin): 380000 nM |
| 98.0% and 96.9% and 96.6% | 99.2% and 98.3% and 98.9% | 99.9% and 99.1% and 103.5% | 100.7% and 100.1% and 99.6% | -0.0543% and 1.1% and -0.4% | 0.156% and 0.7% and 0.8% | 0.8% (2×) and 1.8% | 1.9% (2×) and 2.1% | 3.9% and 4.1% and 4.6% | 7.3% and 6.9% and 7.7% | 13.7% and 13.0% and 13.6% | 22.7% and 21.8% and 22.6% | 35.5% and 35.6% and 37.1% | 54.7% and 53.1% and 53.5% | 68.7% and 65.3% and 67.8% | 81.7% and 81.8% and 83.6% | 91.6% and 89.3% and 88.1% | 94.7% and 92.6% and 94.4% | 58 | 45 | CC(C)[C@H]1NC(=O)CCSSCCNC(=O)[C@H](CNC(=O)c2ccc(Cl)s2)NC(=O)c2cccc(c2)CNC1=O [M1] | IC50 (thrombin [1]; [5]): 59 nM; Ki (thrombin [1]; [6]): 43 nM; IC50 (thrombin [1]; [7]): 56 nM; Ki (thrombin [1]; [8]): 45 nM; IC50 (thrombin [1]; [9]): 58 nM |
| 99.5% and 97.4% and 98.4% | 100.1% (2×) and 99.4% | 100.7% and 100.1% and 99.7% | 100.6% and 99.6% and 99.8% | 3.5% and 3.8% and 4.4% | 4.9% (2×) and 5.4% | 6.7% and 6.5% and 7.1% | 9.9% and 8.4% and 9.6% | 16.3% and 13.3% and 13.6% | 26.3% and 21.4% and 21.2% | 42.5% and 32.8% and 34.8% | 58.0% and 47.2% and 49.8% | 71.8% and 64.0% and 65.5% | 83.6% and 77.5% and 79.8% | 92.7% and 85.4% and 86.8% | 95.0% and 92.0% and 93.5% | 99.2% and 94.0% and 94.1% | 98.9% and 96.9% and 97.6% | 214 | 210 | O=C1CCSSCCNC(=O)C(CNC(=O)c2ccc(Cl)s2)NC(=O)c2cccc(c2)CNC(=O)C(Cc2ccccc2)N1 (stereo not drawn) [M2] | % thrombin activity, Original screen (thrombin [2]; original screen): 6.9%; % thrombin activity, Repeat screen (thrombin [2]; replicate reaction and screen): 6.5%; IC50 (thrombin [1]; [5]): 270 nM; Ki (thrombin [1]; [6]): 138 nM; IC50 (thrombin [1]; [7]): 179 nM; Ki (thrombin [1]; [8]): 149 nM; IC50 (thrombin [1]; [9]): 193 nM |
| 98.3% and 97.3% and 97.1% | 98.8% and 98.0% and 98.2% | 99.9% and 97.2% and 99.1% | 93.6% and 99.4% (2×) | -0.0344% and 0.5% and 0.739% | 0.656% and 1.5% and 1.0% | 2.2% and 5.0% and 2.4% | 4.8% and 4.9% and 5.3% | 9.4% and 9.7% (2×) | 17.5% and 15.4% and 16.3% | 29.4% and 28.1% and 27.8% | 45.2% and 42.3% and 41.8% | 60.5% and 58.8% and 57.9% | 75.1% and 75.3% and 74.4% | 85.8% and 81.9% and 83.6% | 92.4% and 87.2% and 91.4% | 97.7% and 93.3% and 94.6% | 97.5% and 94.4% and 96.1% | 160 | 134 | CC(C)[C@@H]1NC(=O)CCSSCCNC(=O)[C@H](CNC(=O)c2ccc(Cl)s2)NC(=O)c2cccc(c2)CNC1=O [M3] | IC50 (thrombin [1]; [5]): 170 nM; Ki (thrombin [1]; [6]): 121 nM; IC50 (thrombin [1]; [7]): 160 nM; Ki (thrombin [1]; [8]): 119 nM; IC50 (thrombin [1]; [9]): 150 nM |
